Results: ChEMBL document CHEMBL5543158, “Design of Evodiamine-Glucose Conjugates with Improved In Vivo Antitumor Activity” (J Med Chem, 2024)
In brackets after ≈: the same amount, converted by molar mass. Activity calls are given as the source filed them. The calls are words filed in the database; no cut-off is given here.

Assays:
[1] = Solubility of the compound in double distilled water measured upto 30 mins by UV-vis spectrophotometry; assay type: physicochemical
U-87 MG = assay: Antiproliferative activity against human U-87 MG cells measured after 72 hrs by CCK-8 cells; assay type: functional, cell-based, U-87MG ATCC
A549 = assay: Antiproliferative activity against human A549 cells measured after 72 hrs by CCK-8 cells; assay type: functional, cell-based; settings: A549, 72 h
HCT-116 [2] = assay: Antiproliferative activity against human HCT116 cells measured after 72 hrs by CCK-8 cells; assay type: functional, cell-based; settings: HCT-116, 72 h
HCT-116 [3] = assay: Antimigratory activity against human HCT116 cells assessed as wound healing rate incubated for 24 hrs by wound healing assay; assay type: functional, cell-based
HCT-116 [4] = assay: Antimigratory activity against human HCT116 cells assessed as wound healing rate at 0.05 to 0.002 microM incubated for 24 hrs by wound healing assay (reference value: 62%); assay type: functional; settings: dose 0.05-0.002 µM, at 0.002 to 0.05 µM
HCT-116 [5] = assay: Antimigratory activity against human HCT116 cells assessed as inhibition of cell migration at 0.05 microM incubated for 24 hrs by wound healing assay relative to control; assay type: functional; parameters: scale not given: the % may be the effect or the level left
HCT-116 [6] = assay: Anti-invasive activity against human HCT116 cells assessed as decrease in number of cell migration into lower compartment incubated for 24 hrs by transwell assay; assay type: functional, cell-based; settings: dose 0.02-0.05 µM
HCT-116 [7] = assay: Induction of apoptosis in human HCT116 cells assessed as accumulation of cells at G1 phase at 0.02 uM measured after 48 hrs by Annexin V-PI Flow cytometry assay (reference value: 51.12%); assay type: functional
HCT-116 [8] = assay: Induction of apoptosis in human HCT116 cells assessed as accumulation of cells at S phase at 0.02 uM measured after 48 hrs by Annexin V-PI Flow cytometry assay (reference value: 31.25%); assay type: functional
HCT-116 [9] = assay: Induction of apoptosis in human HCT116 cells assessed as accumulation of cells at G2 phase at 0.02 uM measured after 48 hrs by Annexin V-PI Flow cytometry assay (reference value: 17.63%); assay type: functional
HCT-116 [10] = assay: Induction of apoptosis in human HCT116 cells assessed as accumulation of cells at G1 phase at 0.05 uM measured after 48 hrs by Annexin V-PI Flow cytometry assay (reference value: 51.12%); assay type: functional
HCT-116 [11] = assay: Induction of apoptosis in human HCT116 cells assessed as accumulation of cells at S phase at 0.05 uM measured after 48 hrs by Annexin V-PI Flow cytometry assay (reference value: 31.25%); assay type: functional
HCT-116 [12] = assay: Induction of apoptosis in human HCT116 cells assessed as accumulation of cells at G2 phase at 0.05 uM measured after 48 hrs by Annexin V-PI Flow cytometry assay (reference value: 17.63%); assay type: functional
HCT-116 [13] = assay: Induction of apoptosis in human HCT116 cells assessed as accumulation of cells at G1 phase at 0.1 uM measured after 48 hrs by Annexin V-PI Flow cytometry assay (reference value: 51.12%); assay type: functional
HCT-116 [14] = assay: Induction of apoptosis in human HCT116 cells assessed as accumulation of cells at S phase at 0.1 uM measured after 48 hrs by Annexin V-PI Flow cytometry assay (reference value: 31.25%); assay type: functional
HCT-116 [15] = assay: Induction of apoptosis in human HCT116 cells assessed as accumulation of cells at G2 phase at 0.1 uM measured after 48 hrs by Annexin V-PI Flow cytometry assay (reference value: 17.63%); assay type: functional
HCT-116 [16] = assay: Induction of apoptosis in human HCT116 cells assessed as accumulation of cells at G1 phase at 0.2 uM measured after 48 hrs by Annexin V-PI Flow cytometry assay (reference value: 51.12%); assay type: functional
HCT-116 [17] = assay: Induction of apoptosis in human HCT116 cells assessed as accumulation of cells at S phase at 0.2 uM measured after 48 hrs by Annexin V-PI Flow cytometry assay (reference value: 31.25%); assay type: functional
HCT-116 [18] = assay: Induction of apoptosis in human HCT116 cells assessed as accumulation of cells at G2 phase at 0.2 uM measured after 48 hrs by Annexin V-PI Flow cytometry assay (reference value: 17.63%); assay type: functional
HCT-116 [19] = assay: Pro-oxidant effect in human HCT-116 cells assessed as induction of reactive oxygen level (ROS) measured after 12 hrs by flow cytometry using the 2',7'-dichloro-fluorescein diacetate (DCFH-DA) fluorescent probe assay; assay type: functional, cell-based; settings: dose 0.02-0.5 µM
HCT-116 [20] = assay: Pro-oxidant effect in human HCT-116 cells assessed as induction of reactive oxygen level (ROS) measured after 12 hrs by 2',7'-dichloro-fluorescein diacetate (DCFH-DA) fluorescent probe based flow cytometry; assay type: functional, cell-based; settings: dose 0.02-0.5 µM
HCT-116 [21] = assay: Reduction in GSH level in human HCT-116 cells assessed as reduced GSH content incubated for 12 hrs; assay type: functional, cell-based; settings: dose 0.1-2 µM
HCT-116 [22] = assay: Induction of DNA damage in human HCT-116 cells assessed as increase in gamma-H2AX level at above 0.02 to 0.5 uM incubated for 12 hrs by Western blotting analysis; assay type: functional, cell-based; settings: dose 0.02-0.5 µM
[23] = molecular target: T1, DNA topoisomerase 1 (Homo sapiens) (UniProt P11387); assay: Inhibition of DNA topoisomerase I (unknown origin) mediated supercoiled DNA relaxation activity at 100 uM by agarose gel electrophoresis analysis
T1 sequence (whole entry): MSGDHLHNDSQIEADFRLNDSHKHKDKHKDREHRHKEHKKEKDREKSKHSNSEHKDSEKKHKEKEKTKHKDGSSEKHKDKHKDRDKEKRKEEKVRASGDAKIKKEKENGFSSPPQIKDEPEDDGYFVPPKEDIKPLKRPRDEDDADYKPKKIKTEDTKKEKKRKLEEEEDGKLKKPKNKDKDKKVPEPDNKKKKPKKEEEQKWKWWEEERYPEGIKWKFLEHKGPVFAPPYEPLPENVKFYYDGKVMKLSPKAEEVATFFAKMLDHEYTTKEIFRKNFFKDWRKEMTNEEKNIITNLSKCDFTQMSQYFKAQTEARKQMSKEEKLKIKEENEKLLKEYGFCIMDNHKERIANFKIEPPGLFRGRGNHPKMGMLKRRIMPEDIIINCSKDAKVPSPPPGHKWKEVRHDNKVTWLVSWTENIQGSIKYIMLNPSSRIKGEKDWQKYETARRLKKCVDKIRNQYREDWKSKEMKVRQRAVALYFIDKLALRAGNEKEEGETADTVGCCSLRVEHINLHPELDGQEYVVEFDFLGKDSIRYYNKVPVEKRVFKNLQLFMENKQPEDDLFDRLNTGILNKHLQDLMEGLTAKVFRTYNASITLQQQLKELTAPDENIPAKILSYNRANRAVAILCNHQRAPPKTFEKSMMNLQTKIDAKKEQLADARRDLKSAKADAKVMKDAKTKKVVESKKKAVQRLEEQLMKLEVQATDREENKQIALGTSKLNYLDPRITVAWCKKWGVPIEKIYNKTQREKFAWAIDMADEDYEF

Homo sapiens = organism: Homo sapiens; assay: Inhibition of DNA topoisomerase 2 (unknown origin) mediated supercoiled DNA relaxation activity at 50 uM by agarose gel electrophoresis analysis
HCT-116 [24] = assay: Induction of apoptosis in 100 pmol GLUT1 siRNA treated human HCT-116 cells assessed as late apoptotic cells at 50 nM incubated for 48 hrs (reference value: 13.36%); assay type: functional

- solubility at 0.5 h [1]: 2150 µg/mL (≈ 4.3 mM)
- IC50 (U-87 MG): 64 nM
- IC50 (A549): 64 nM
- IC50 (HCT-116 [2]): 64 nM
- inhibition [23]: Active
- inhibition (Homo sapiens): Active
SMILES: CN1c2ccc(F)cc2C(=O)N2CCc3c([nH]c4ccc(O[C@@H]5O[C@H](CO)[C@@H](O)[C@H](O)[C@H]5O)cc34)[C@H]21
- Activity (HCT-116 [3]): Dose-Dependent Effect
- Activity (HCT-116 [4]): 1.1%
- Activity (HCT-116 [5]): 100%
- Activity (HCT-116 [6]): Dose-Dependent Effect
- Activity (HCT-116 [7]): 43.27%
- Activity (HCT-116 [8]): 26.54%
- Activity (HCT-116 [9]): 30.19%
- Activity (HCT-116 [10]): 10.48%
- Activity (HCT-116 [11]): 32%
- Activity (HCT-116 [12]): 57.53%
- Activity (HCT-116 [13]): 1.57%
- Activity (HCT-116 [14]): 9.44%
- Activity (HCT-116 [15]): 88.98%
- Activity (HCT-116 [16]): 1.56%
- Activity (HCT-116 [17]): 5.6%
- Activity (HCT-116 [18]): 92.85%
- Activity (HCT-116 [19]): Dose-Dependent Effect
- Activity (HCT-116 [20]): Dose-Dependent Effect
- Activity (HCT-116 [21]): Dose-Dependent Effect
- Activity (HCT-116 [22]): Active
- Activity (HCT-116 [24]): 22.61%
